According to PubChem BioAssay (NCI):
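Protocol summary: plate cells (96-well), add compound at 5 concentrations, incubate 48 h, interpolate endpoints linearly. TGI: concentration producing complete growth inhibition.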

Legend:
Assay in all cases: DTP human tumour cell line panel, 48 h
DLD-1 colon = test system: DLD-1 colon
DMS 114 small cell lung = test system: DMS 114 small cell lung
CCRF-CEM leukemia = test system: CCRF-CEM leukemia
SNB-78 CNS = test system: SNB-78 CNS
HOP-18 NSCLC = test system: HOP-18 NSCLC
DMS 273 small cell lung = test system: DMS 273 small cell lung
LXFL 529 NSCLC = test system: LXFL 529 NSCLC
RXF-631 renal = test system: RXF-631 renal
M19-MEL melanoma = test system: M19-MEL melanoma
XF 498 CNS = test system: XF 498 CNS
KM20L2 colon = test system: KM20L2 colon

Measured: TGI

CC1=CCN(c2ccccn2)OC1c1ccccc1 (stereo unspecified)
> 100 µM: DLD-1 colon | DMS 114 small cell lung | CCRF-CEM leukemia | SNB-78 CNS | HOP-18 NSCLC | DMS 273 small cell lung | LXFL 529 NSCLC | RXF-631 renal | M19-MEL melanoma | XF 498 CNS | KM20L2 colon
